{"source": "PubChem BioAssay (NCI)", "assay_in_all_cases": "inhibition of tumour cell growth, NCI panel, 48 h", "key": {"[1]": {"test_system": "HS 578T breast"}, "[2]": {"test_system": "ACHN renal"}, "[3]": {"test_system": "HCT-116 colon"}, "[4]": {"test_system": "NCI-H23 lung"}, "[5]": {"test_system": "MOLT-4 leukemia"}, "[6]": {"test_system": "SK-MEL-2 melanoma"}, "[7]": {"test_system": "MDA-MB-231 breast"}, "[8]": {"test_system": "RPMI-8226 leukemia"}, "[9]": {"test_system": "SK-MEL-5 melanoma"}, "[10]": {"test_system": "MCF7 breast"}, "[11]": {"test_system": "CCRF-CEM leukemia"}, "[12]": {"test_system": "HOP-92 NSCLC"}, "[13]": {"test_system": "A498 renal"}, "[14]": {"test_system": "A549 NSCLC"}, "[15]": {"test_system": "COLO 205 colon"}, "[16]": {"test_system": "SN12C renal"}, "[17]": {"test_system": "NCI-H226 lung"}, "[18]": {"test_system": "NCI-H460 lung"}, "[19]": {"test_system": "OVCAR-8 ovarian"}, "[20]": {"test_system": "HCT-15 colon"}, "[21]": {"test_system": "TK-10 renal"}, "[22]": {"test_system": "LOX IMVI melanoma"}, "[23]": {"test_system": "PC-3 prostate"}, "[24]": {"test_system": "HOP-62 NSCLC"}, "[25]": {"test_system": "SNB-75 CNS"}, "[26]": {"test_system": "CAKI-1 renal"}, "[27]": {"test_system": "HT29 colon"}, "[28]": {"test_system": "OVCAR-5 ovarian"}}, "note": "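Compound exposure: 48 hours, 5 concentrations, 96-well plates. Abbreviation: GI50, concentration required for 50% inhibition of growth. The concentration for full growth arrest is given as TGI.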", "data": [{"compound": "COc1cc2c(cc1O)CC[C@@H]1[C@@H]2CC[C@]2(C)[C@@H](OCCCN(C)C)CC[C@@H]12", "values": [{"measurement": "GI50", "setting": "[1]", "value": 210, "unit": "nM"}, {"measurement": "TGI", "setting": "[1]", "value": 1190, "unit": "nM"}, {"measurement": "GI50", "setting": "[2]", "value": 164, "unit": "nM"}, {"measurement": "TGI", "setting": "[2]", "value": 527, "unit": "nM"}, {"measurement": "GI50", "setting": "[3]", "value": 98.1, "unit": "nM"}, {"measurement": "TGI", "setting": "[3]", "value": 381, "unit": "nM"}, {"measurement": "GI50", "setting": "[4]", "value": 119, "unit": "nM"}, {"measurement": "TGI", "setting": "[4]", "value": 552, "unit": "nM"}, {"measurement": "GI50", "setting": "[5]", "value": 145, "unit": "nM"}, {"measurement": "TGI", "setting": "[5]", "value": 555, "unit": "nM"}, {"measurement": "GI50", "setting": "[6]", "value": 76.9, "unit": "nM"}, {"measurement": "TGI", "setting": "[6]", "value": 198, "unit": "nM"}, {"measurement": "GI50", "setting": "[7]", "value": 104, "unit": "nM"}, {"measurement": "TGI", "setting": "[7]", "value": 219, "unit": "nM"}, {"measurement": "GI50", "setting": "[8]", "value": 126, "unit": "nM"}, {"measurement": "TGI", "setting": "[8]", "value": 301, "unit": "nM"}, {"measurement": "GI50", "setting": "[9]", "value": 83.3, "unit": "nM"}, {"measurement": "TGI", "setting": "[9]", "value": 154, "unit": "nM"}, {"measurement": "GI50", "setting": "[10]", "value": 148, "unit": "nM"}, {"measurement": "TGI", "setting": "[10]", "value": 439, "unit": "nM"}, {"measurement": "GI50", "setting": "[11]", "value": 178, "unit": "nM"}, {"measurement": "TGI", "setting": "[11]", "value": 556, "unit": "nM"}, {"measurement": "GI50", "setting": "[12]", "value": 112, "unit": "nM"}, {"measurement": "TGI", "setting": "[12]", "value": 473, "unit": "nM"}, {"measurement": "GI50", "setting": "[13]", "value": 278, "unit": "nM"}, {"measurement": "TGI", "setting": "[13]", "value": 901, "unit": "nM"}, {"measurement": "GI50", "setting": "[14]", "value": 165, "unit": "nM"}, {"measurement": "TGI", "setting": "[14]", "value": 650, "unit": "nM"}, {"measurement": "GI50", "setting": "[15]", "value": 268, "unit": "nM"}, {"measurement": "TGI", "setting": "[15]", "value": 1030, "unit": "nM"}, {"measurement": "GI50", "setting": "[16]", "value": 304, "unit": "nM"}, {"measurement": "TGI", "setting": "[16]", "value": 1080, "unit": "nM"}, {"measurement": "GI50", "setting": "[17]", "value": 617, "unit": "nM"}, {"measurement": "TGI", "setting": "[17]", "value": 1570, "unit": "nM"}, {"measurement": "GI50", "setting": "[18]", "value": 163, "unit": "nM"}, {"measurement": "TGI", "setting": "[18]", "value": 550, "unit": "nM"}, {"measurement": "GI50", "setting": "[19]", "value": 196, "unit": "nM"}, {"measurement": "TGI", "setting": "[19]", "value": 733, "unit": "nM"}, {"measurement": "GI50", "setting": "[20]", "value": 125, "unit": "nM"}, {"measurement": "TGI", "setting": "[20]", "value": 558, "unit": "nM"}, {"measurement": "GI50", "setting": "[21]", "value": 154, "unit": "nM"}, {"measurement": "TGI", "setting": "[21]", "value": 496, "unit": "nM"}, {"measurement": "GI50", "setting": "[22]", "value": 90.6, "unit": "nM"}, {"measurement": "TGI", "setting": "[22]", "value": 173, "unit": "nM"}, {"measurement": "GI50", "setting": "[23]", "value": 183, "unit": "nM"}, {"measurement": "TGI", "setting": "[23]", "value": 748, "unit": "nM"}, {"measurement": "GI50", "setting": "[24]", "value": 182, "unit": "nM"}, {"measurement": "TGI", "setting": "[24]", "value": 728, "unit": "nM"}, {"measurement": "GI50", "setting": "[25]", "value": 76.8, "unit": "nM"}, {"measurement": "TGI", "setting": "[25]", "value": 273, "unit": "nM"}, {"measurement": "GI50", "setting": "[26]", "value": 271, "unit": "nM"}, {"measurement": "TGI", "setting": "[26]", "value": 904, "unit": "nM"}, {"measurement": "GI50", "setting": "[27]", "value": 96.9, "unit": "nM"}, {"measurement": "TGI", "setting": "[27]", "value": 233, "unit": "nM"}, {"measurement": "GI50", "setting": "[28]", "value": 296, "unit": "nM"}, {"measurement": "TGI", "setting": "[28]", "value": 1140, "unit": "nM"}]}]}
